Measured values published in US20170266319A1, “METHODS AND COMPOSITIONS FOR TREATING CONDITIONS ASSOCIATED WITH SPINAL CORD INJURY” (priority 2016, published 2017).
“Also recorded” adds a separate entry of the source.

Experiments:
Assay type in all cases: in vivo
[1] = test system: hM4Di-expressing Vglut2+ spinal interneurons; test: Colorectal distension (CRD) and c-Fos analyses after chemogenetic silencing; details: T3 SCI Vglut2-Cre mice injected with AAV-hSyn-DIO-hM4Di-mCherry; CNO 1.0 mg/kg i.p. 30 min before CRD, day 28 post-injury, vs vehicle
Description: Colorectal distension was induced as previously reported3, 12, 13 with minor modification. A 4-French, 60 mm balloon-tipped catheter (Swan-Ganz monitoring catheter model 116F4; Edwards Life Sciences) was inserted 1.5 cm into the rectum before securing the catheter to the tail with surgical tape. The balloon was inflated with 0.2 ml of air for 30 sec then deflated 60 sec. This 90 sec cycle was repeated for 90 min. Mice were perfused 30 min after the final cycle of inflation. The number of c-Fos^+ cells were counted and analyzed in 2 representative horizontal spinal cord sections at T4-9 level from multiple SCI animals with or without CRD stimulation. The number of animals analyzed were: uninjured with or without CRD, n=3/group; T3 SCI (day 28) without CRD, n=3; T3 SCI (day 28) with CRD, n=5; Vglut2-Cre; cc-EGFP+T3 SCI (day 28) with CRD, n=3; Chat-Cre; cc-EGFP+T3 SCI (day 28) with CRD, n=3 (FIG. 7). To evaluate the effects of DREADD in mice with CRD-induced activation of visceral-sympathetic reflex, CNO (1.0 mg/kg body weight, i.p.; Sigma) or vehicle saline was injected into Vglut2-Cre+T3SCI+AAV8-hSyn-DIO-hM4D(Gi)-mCherry mice at day 28 post-injury, 30 min before the induction of CRD (n=3 each) (FIG. 9).

[2] = test system: Vglut2+ spinal interneurons expressing hM4Di DREADD; test: DREADD experiment: T3 SCI immune suppression, Vglut2-Cre mice; details: T3 SCI Vglut2-Cre mice with AAV8-hSyn-DIO-hM4D(Gi)-mCherry; CNO 1 mg/kg 2x/day, day 14-27 post-injury; day 28
Description: (§1) AAV8-hSyn-DIO-hM4Di-mCherry (AAV8-hSyn-DIO-hM4D(Gi)-mCherry; 7×10^12 vg/ml; UNC Vector Core) was injected into T5 and 7 levels of the spinal cord of Vglut2-Cre, Chat-Cre, or WT mice at P14 (0.8 μl/site, 0.25 mm lateral, 0.5 mm in depth). […] T3 SCI was induced at 8 weeks old, and then CNO (1.0 mg/kg body weight, i.p.; Sigma) was injected twice per day from day 14 to 27 post-injury (FIG. 3b). Small cohorts of mice from each colony were used as they reached the appropriate age for experimentation. […]
(§2) Spleens were harvested in Flow Cytometry Staining Buffer (eBioscience) and cell suspensions were made by expressing spleen tissue through a cell strainer using the plunger of a 10 ml syringe. […] Splenocytes were counted on a hemocytometer and 5×10^5 cells were incubated with Fc-block (anti-mouse-CD16/CD32 antibody; eBioscience). […] Splenocytes (10,000 events/sample) were analyzed using a FACSCanto flow cytometer with FACSDiva software (BD Biosciences). […] The number of each subset was calculated as the percentage of labeled cells multiplied by the total number of splenocytes.

[3] = test system: Chat+ spinal interneurons expressing hM4Di DREADD; test: DREADD experiment: T3 SCI immune suppression, Chat-Cre mice; details: T3 SCI Chat-Cre mice with AAV8-hSyn-DIO-hM4D(Gi)-mCherry; CNO 1 mg/kg 2x/day, day 14-27 post-injury
Description: as §1, §2

C[N+]1([O-])CCN(C2=Nc3cc(Cl)ccc3Nc3ccccc32)CC1 [CNO, clozapine-N-oxide]
c-Fos expression elicited by colorectal distension (silencing of hM4DGi+ spinal neurons) [1]: reduces c-Fos expression; also recorded: significant silencing | Splenic atrophy [2]: reversed | Total numbers of splenocytes, including CD4+ and CD8+ T cells and B220+ B cells [2]: restored to pre-injury levels | Immune protection [3]: modest non-significant immune protection
